Reference: publication PMC6428247, “Potent inhibitors of equine steroid isomerase EcaGST A3-3” (PLoS ONE, 2019)
Structures can show the parent of a compound that is named as a salt. Where two headings read alike, the source gives them in different places.

Key:
[1] = target: T1, EcaGST A3-3 (Equus caballus, UniProt M9ZT87); experiment: Inhibition of EcaGST A3-3 activity, GSH conjugation with CDNB; format: biochemical, Equus ferus caballus; details: for inhibition at 10 µM: read-out: Inhibition (%) of EcaGST A3-3; for IC50: read-out: IC50 EcaGST A3-3, substrate CDNB; for Hill coefficient, CDNB inhibition: dose-response curve, substrate CDNB, mean ± SD
T1 sequence (M9ZT87 entry or part of it): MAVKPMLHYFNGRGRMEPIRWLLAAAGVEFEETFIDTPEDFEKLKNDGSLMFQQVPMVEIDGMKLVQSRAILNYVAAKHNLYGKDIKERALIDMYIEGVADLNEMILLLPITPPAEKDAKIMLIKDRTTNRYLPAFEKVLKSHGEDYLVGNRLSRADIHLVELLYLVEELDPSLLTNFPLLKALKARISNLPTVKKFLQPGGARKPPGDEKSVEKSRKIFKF
Experimental: The final solvent concentration in the reaction system was kept at 5% (v/v) as a maximum.
(§1) The conjugation of GSH with the electrophilic substrate CDNB was used as a biochemical assay for general activity measurements. Screening of the US Drug library for inhibition was done in triplicates in 96-well plates in a Thermo Scientific Multiskan GO spectrophotometer. The conjugation activity at 30°C was monitored at 340 nm for 1 min in 0.1 M sodium phosphate buffer at pH 6.5 and 10 μM inhibitor concentration in a final volume of 300 μL. Initial concentrations of GSH and CDNB were 1 mM.
Assay conditions for inhibition measurements of enzyme activity with CDNB were the following: EcaGST A3-3 15 nM, initial concentrations of GSH and CDNB 1 mM, inhibitor concentrations varying from 0.029 μM to 15 μM, in 100 mM Na2HPO4/NaH2PO4 at pH 6.5.
The reactions were followed spectrophotometrically for 1 min at 30°C using a Shimadzu UV-2501 PC spectrophotometer (Shimadzu Inc.). All experiments included triplicate measurements in each data point.
The equation for competitive inhibition fitted by non-linear regression was v=Vmax[S]/KM(1+[I]/Ki)+[S] where [S] is the substrate concentrations and [I] is the inhibitor concentration.

[2] = target: T1, EcaGST A3-3; experiment: Inhibition of EcaGST A3-3 steroid double-bond isomerase activity with Δ^5-AD; format: biochemical, Equus ferus caballus; details: for Hill coefficient, Δ^5-AD inhibition: dose-response curve, substrate Δ^5-AD, mean ± SD
[3] = target: T2, HsaGST A3-3 (Homo sapiens, UniProt Q16772); experiment: Inhibition of HsaGST A3-3 CDNB activity; format: biochemical; details: 1 mM GSH, 1 mM CDNB, pH 6.5, 30°C; for IC50: CDNB activity; for inhibition at 10 µM: pH 6.5, 10 μM inhibitor, read-out: Inhibition (%) of HsaGST A3-3
T2 construct: made in house
T2 sequence (Q16772 1-222): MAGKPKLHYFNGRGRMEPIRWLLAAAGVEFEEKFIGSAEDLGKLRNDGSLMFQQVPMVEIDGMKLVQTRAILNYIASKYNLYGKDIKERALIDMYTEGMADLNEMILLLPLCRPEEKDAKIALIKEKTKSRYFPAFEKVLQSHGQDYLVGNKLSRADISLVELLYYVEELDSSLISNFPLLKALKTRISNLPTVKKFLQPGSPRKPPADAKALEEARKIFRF
Experimental: (§2) EcaGST A3-3 [10], HsaGST A3-3 [12] and HsaGST M2-2 [13] were cloned, expressed and purified as described previously. Protein concentration was determined by means of the Bradford assay.
as §1
(§3) For understanding the effects of pharmacological interventions based on GST inhibitors, it is important to know the selectivity among the numerous GSTs. […] All values were determined with CDNB, which is a common substrate for all the enzymes.

[4] = target: T3, HsaGST M2-2 (Homo sapiens, UniProt P28161); experiment: Inhibition of HsaGST M2-2 CDNB activity; format: biochemical; details: 1 mM GSH, 1 mM CDNB, pH 6.5, 30°C; for inhibition at 10 µM: 10 μM inhibitor; for IC50: CDNB activity, read-out: IC50 HsaGST M2-2
T3 construct: made in house
T3 sequence (P28161 1-218): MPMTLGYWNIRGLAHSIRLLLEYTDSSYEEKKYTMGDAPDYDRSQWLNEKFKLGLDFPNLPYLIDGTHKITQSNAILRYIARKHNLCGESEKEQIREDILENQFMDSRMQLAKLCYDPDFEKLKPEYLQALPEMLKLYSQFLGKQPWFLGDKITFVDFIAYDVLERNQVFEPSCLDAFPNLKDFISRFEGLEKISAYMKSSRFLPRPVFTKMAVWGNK
Experimental: as §2, §1, §3

[5] = system: HsaGST P1-1; parameters: method as in PMID 23769903; details: 3.3 μM inhibitor, 1 mM GSH, 1 mM CDNB, pH 6.5, 30°C; cited from earlier work
[6] = system: HsaGST S1-1; parameters: method as in PMID 25603235; details: 1 mM GSH, 1 mM CDNB, pH 6.5, 30°C, cited from earlier work; for Inhibition (%) of HsaGST S1-1: 10 μM inhibitor; for IC50: CDNB activity
[7] = 10 μM inhibitor, 1 mM GSH, 1 mM CDNB, sodium phosphate pH 6.5, 30°C
[8] = 1 mM CDNB, 1 mM GSH, 100 mM sodium phosphate pH 6.5, 30°C
[9] = 0.1 mM Δ^5-AD, 1 mM GSH, 25 mM sodium phosphate pH 8.0, 30°C

CC[C@H](C)C(=O)O[C@H]1C[C@@H](C)C=C2C=C[C@H](C)[C@H](CC[C@@H]3C[C@@H](O)CC(=O)O3)[C@H]21 [Lovastatin]
inhibition at 10 µM [1, 7]: 33 ± 15%

COC(=O)Nc1nc2ccc(C(=O)c3ccccc3)cc2[nH]1 [Mebendazole]
inhibition at 10 µM [1, 7]: 35 ± 15%

CC(C)NCC(O)c1cc(O)cc(O)c1 (centres unmarked) [Metaproterenol]
inhibition at 10 µM [1, 7]: 42 ± 24%

COC(=O)C1=C(C)NC(C)=C(C(=O)OCC(C)C)C1c1ccccc1[N+](=O)[O-] (centres unmarked) [Nisoldipine]
inhibition at 10 µM [1, 7]: 75 ± 2.3%
IC50 EcaGST A3-3, substrate CDNB [1, 8]: Anomalous curve
IC50 EcaGST A3-3, substrate Δ^5-AD [2, 9]: Anomalous curve
IC50 [3]: 4100 nM
inhibition at 10 µM [3]: 70%
inhibition at 10 µM ([4]; read-out: Inhibition (%) of HsaGST M2-2): 35%
Inhibition (%) of HsaGST P1-1 [5]: 14%
Inhibition (%) of HsaGST S1-1 [6]: 42%
IC50 [6]: 29000 nM

CN1CCCN=C1/C=C/c1cccc(O)c1 [Oxantel pamoate]
IC50 [4]: 1700 nM

CCc1ccc(CCOc2ccc(CC3SC(=O)NC3=O)cc2)nc1 (centres unmarked) [Pioglitazone]
IC50 [4]: 5900 nM

Nc1ccc(C(=O)[O-])cc1.[K+] [Potassium p-aminobenzoate]
Inhibition (%) of EcaGST A3-3 [1, 7]: 30±16%

CN1CCCN=C1/C=C/c1cccs1 [Pyrantel pamoate]
IC50 [4]: 1400 nM

Cc1cc(/C=C/c2ccc3cc(N(C)C)ccc3[n+]2C)c(C)n1-c1ccccc1 [Pyrvinium pamoate]
IC50 [4]: 1200 nM

C[n+]1cc2c3c(ccc2c2ccc4cc5c(cc4c21)OCO5)OCO3 [Sanguinarine sulfate]
inhibition at 10 µM [1, 7]: 47 ± 19%

O=C(O)c1cc(O)c2c(c1)[C@H]([C@H]1c3cc(C(=O)O)cc(O)c3C(=O)c3c(O[C@@H]4O[C@H](CO)[C@@H](O)[C@H](O)[C@H]4O)cccc31)c1cccc(O[C@@H]3O[C@H](CO)[C@@H](O)[C@H](O)[C@H]3O)c1C2=O [Sennoside A]
inhibition at 10 µM [1, 7]: 100%
IC50 [1, 8]: 2800 ± 280 nM
Hill coefficient, CDNB inhibition [1]: 2.2±0.41
IC50 [2]: 110 ± 8.2 nM
IC50 EcaGST A3-3, substrate Δ^5-AD [2, 9]: submicromolar range
Hill coefficient, Δ^5-AD inhibition [2]: 2.1±0.29
Times more potent with Δ^5-AD as substrate than with CDNB ([2]; ratio of IC50 values CDNB vs Δ^5-AD, EcaGST A3-3): approximately 25 times
IC50 [3]: 980 nM
inhibition at 10 µM [3]: 90%
inhibition at 10 µM ([4]; read-out: Inhibition (%) of HsaGST M2-2 (symbol)): < 30%
Inhibition (%) of HsaGST P1-1 [5]: < 4%
Inhibition (%) of HsaGST S1-1 [6]: 30%
IC50 [6]: 39000 nM

O=C(O)c1cc(/N=N/c2ccc(S(=O)(=O)Nc3ccccn3)cc2)ccc1O [Sulfasalazine]
inhibition at 10 µM [1, 7]: ≤ 30%
IC50 [4]: 300 nM

CC1=C(CC(=O)O)c2cc(F)ccc2/C1=C\c1ccc([S+](C)[O-])cc1 (centres unmarked) [Sulindac]
IC50 [4]: 23000 nM

Cc1ccc(C(=O)Nc2ccc(S(=O)(=O)O)c3cc(S(=O)(=O)O)cc(S(=O)(=O)O)c23)cc1NC(=O)c1cccc(NC(=O)Nc2cccc(C(=O)Nc3cc(C(=O)Nc4ccc(S(=O)(=O)O)c5cc(S(=O)(=O)O)cc(S(=O)(=O)O)c45)ccc3C)c2)c1 [Suramin]
inhibition at 10 µM [1, 7]: ≤ 30%
IC50 [4]: 620 nM
IC50 [6]: 300 nM

O=C(OCC1OC(OC(=O)c2cc(O)c(O)c(OC(=O)c3cc(O)c(O)c(O)c3)c2)C(OC(=O)c2cc(O)c(O)c(OC(=O)c3cc(O)c(O)c(O)c3)c2)C(OC(=O)c2cc(O)c(O)c(OC(=O)c3cc(O)c(O)c(O)c3)c2)C1OC(=O)c1cc(O)c(O)c(OC(=O)c2cc(O)c(O)c(O)c2)c1)c1cc(O)c(O)c(OC(=O)c2cc(O)c(O)c(O)c2)c1 (centres unmarked) [Tannic acid]
IC50 [1, 8]: 330 ± 18 nM
Hill coefficient, CDNB inhibition [1]: 2.2±0.23
IC50 EcaGST A3-3, substrate Δ^5-AD [2, 9]: submicromolar range
Hill coefficient, Δ^5-AD inhibition [2]: 2.1±0.63
IC50 ([2]; read-out: IC50 EcaGST A3-3, substrate Δ^5-AD, 0.1 mM Δ^5-AD, 1 mM GSH, 25 mM sodium phosphate pH 8.0, 30°C): 220 ± 34 nM
IC50 [3]: 210 nM
IC50 [4]: 1200 nM
Inhibition (%) of HsaGST P1-1 [5]: < 4%
Inhibition (%) of HsaGST S1-1 [6]: 100%
IC50 [6]: 350 nM
